# From patent publication US12377104B1, “Methods for treating a fatty liver disease” (Madrigal Pharmaceuticals, Inc., priority 2024, dated 2025)
# Tested on: NASH patients
# Test: MAESTRO-NASH: efficacy by baseline body weight and BMI
# Format: in vivo, human
# Settings: for ≥30% Reduction in MRI-PDFF at Week 52, Assessment (%) / ≥120% Increase in SHBG at Week 52, Assessment (%): post hoc
# Description: In the MAESTRO-NASH study, randomization to 80 mg and 100 mg doses was equal across all body weights. Analyses were conducted to provide additional evidence of a relationship between resmetirom dose, baseline body weight and body mass index (BMI), and safety/efficacy readouts. […] The only variable that determined exposure to resmetirom in the NASH population was body weight. […] Study median body weight was 100 kg. […] et al. (2024). CAP was stable over time, both doses showing a similar durable response (FIG. 30B).
compound,measurement,setting,value
"CC(C)c1cc(Oc2c(Cl)cc(-n3nc(C#N)c(=O)[nH]c3=O)cc2Cl)n[nH]c1=O [Resmetirom, 2-(3,5-dichloro-4-((5-isopropyl-6-oxo-1,6-dihydropyridazin-3-yl)oxy)phenyl)-3,5-dioxo-2,3,4,5-tetrahydro-1,2,4-triazine-6-carbonitrile]",Discontinued Study Prior to Week 52: number,"80 mg, 80-<90 kg",6
same,Discontinued Study Prior to Week 52: percentage (in parentheses),"80 mg, 80-<90 kg",(10.3)
same,Week 52 MITT Consensus Fibrosis Improvement Responder: number,"80 mg, 80-<90 kg",20
same,Week 52 MITT Consensus Fibrosis Improvement Responder: percentage (in parentheses),"80 mg, 80-<90 kg",(34.5)
same,Week 52 MITT Consensus NASH Resolution Responder: number,"80 mg, 80-<90 kg",17
same,Week 52 MITT Consensus NASH Resolution Responder: percentage (in parentheses),"80 mg, 80-<90 kg",(29.3)
same,Week 52 Paired Biopsies Consensus Fibrosis Improvement Responder: number,"80 mg, 80-<90 kg",20
same,Week 52 Paired Biopsies Consensus Fibrosis Improvement Responder: percentage (in parentheses),"80 mg, 80-<90 kg",(40.8)
same,Week 52 Paired Biopsies Consensus NASH Resolution Responder: number,"80 mg, 80-<90 kg",17
same,Week 52 Paired Biopsies Consensus NASH Resolution Responder: percentage (in parentheses),"80 mg, 80-<90 kg",(34.7)
same,≥30% reduction in MRI-PDFF at Week 52: number of patients,"80 mg, 80-<90 kg",28
same,≥30% reduction in MRI-PDFF at Week 52: percentage of patients (in parentheses),"80 mg, 80-<90 kg",(63.6)
same,≥120% increase in SHBG at Week 52: number of patients,"80 mg, 80-<90 kg",30
same,≥120% increase in SHBG at Week 52: percentage of patients (in parentheses),"80 mg, 80-<90 kg",(56.6)
same,Discontinued Study Prior to Week 52: number,"80 mg, 90-<100 kg",6
same,Discontinued Study Prior to Week 52: percentage (in parentheses),"80 mg, 90-<100 kg",(10.2)
same,Week 52 MITT Consensus Fibrosis Improvement Responder: number,"80 mg, 90-<100 kg",15
same,Week 52 MITT Consensus Fibrosis Improvement Responder: percentage (in parentheses),"80 mg, 90-<100 kg",(25.4)
same,Week 52 MITT Consensus NASH Resolution Responder: number,"80 mg, 90-<100 kg",15
same,Week 52 MITT Consensus NASH Resolution Responder: percentage (in parentheses),"80 mg, 90-<100 kg",(25.4)
same,Week 52 Paired Biopsies Consensus Fibrosis Improvement Responder: number,"80 mg, 90-<100 kg",15
same,Week 52 Paired Biopsies Consensus Fibrosis Improvement Responder: percentage (in parentheses),"80 mg, 90-<100 kg",(30.6)
same,Week 52 Paired Biopsies Consensus NASH Resolution Responder: number,"80 mg, 90-<100 kg",15
same,Week 52 Paired Biopsies Consensus NASH Resolution Responder: percentage (in parentheses),"80 mg, 90-<100 kg",(30.6)
same,≥30% reduction in MRI-PDFF at Week 52: number of patients,"80 mg, 90-<100 kg",28
same,≥30% reduction in MRI-PDFF at Week 52: percentage of patients (in parentheses),"80 mg, 90-<100 kg",(62.2)
same,≥120% increase in SHBG at Week 52: number of patients,"80 mg, 90-<100 kg",28
same,≥120% increase in SHBG at Week 52: percentage of patients (in parentheses),"80 mg, 90-<100 kg",(52.8)
same,Discontinued Study Prior to Week 52: number,"80 mg, 100-<110 kg",3
same,Discontinued Study Prior to Week 52: percentage (in parentheses),"80 mg, 100-<110 kg",(6.5)
same,Week 52 MITT Consensus Fibrosis Improvement Responder: number,"80 mg, 100-<110 kg",8
same,Week 52 MITT Consensus Fibrosis Improvement Responder: percentage (in parentheses),"80 mg, 100-<110 kg",(17.4)
same,Week 52 MITT Consensus NASH Resolution Responder: number,"80 mg, 100-<110 kg",13
same,Week 52 MITT Consensus NASH Resolution Responder: percentage (in parentheses),"80 mg, 100-<110 kg",(28.3)
same,Week 52 Paired Biopsies Consensus Fibrosis Improvement Responder: number,"80 mg, 100-<110 kg",8
same,Week 52 Paired Biopsies Consensus Fibrosis Improvement Responder: percentage (in parentheses),"80 mg, 100-<110 kg",(22.2)
same,Week 52 Paired Biopsies Consensus NASH Resolution Responder: number,"80 mg, 100-<110 kg",13
same,Week 52 Paired Biopsies Consensus NASH Resolution Responder: percentage (in parentheses),"80 mg, 100-<110 kg",(36.1)
same,≥30% reduction in MRI-PDFF at Week 52: number of patients,"80 mg, 100-<110 kg",23
same,≥30% reduction in MRI-PDFF at Week 52: percentage of patients (in parentheses),"80 mg, 100-<110 kg",(67.6)
same,≥120% increase in SHBG at Week 52: number of patients,"80 mg, 100-<110 kg",14
same,≥120% increase in SHBG at Week 52: percentage of patients (in parentheses),"80 mg, 100-<110 kg",(34.1)
same,Discontinued Study Prior to Week 52: number,"80 mg, <80 kg",6
same,Discontinued Study Prior to Week 52: percentage (in parentheses),"80 mg, <80 kg",(10.0)
same,Week 52 MITT Consensus Fibrosis Improvement Responder: number,"80 mg, <80 kg",17
same,Week 52 MITT Consensus Fibrosis Improvement Responder: percentage (in parentheses),"80 mg, <80 kg",(28.3)
same,Week 52 MITT Consensus NASH Resolution Responder: number,"80 mg, <80 kg",15
same,Week 52 MITT Consensus NASH Resolution Responder: percentage (in parentheses),"80 mg, <80 kg",(25.0)
same,Week 52 Paired Biopsies Consensus Fibrosis Improvement Responder: number,"80 mg, <80 kg",17
same,Week 52 Paired Biopsies Consensus Fibrosis Improvement Responder: percentage (in parentheses),"80 mg, <80 kg",(34.7)
same,Week 52 Paired Biopsies Consensus NASH Resolution Responder: number,"80 mg, <80 kg",15
same,Week 52 Paired Biopsies Consensus NASH Resolution Responder: percentage (in parentheses),"80 mg, <80 kg",(30.6)
same,≥30% reduction in MRI-PDFF at Week 52: number of patients,"80 mg, <80 kg",34
same,≥30% reduction in MRI-PDFF at Week 52: percentage of patients (in parentheses),"80 mg, <80 kg",(73.9)
same,≥120% increase in SHBG at Week 52: number of patients,"80 mg, <80 kg",39
same,≥120% increase in SHBG at Week 52: percentage of patients (in parentheses),"80 mg, <80 kg",(72.2)
same,"≥30% Reduction in MRI-PDFF at Week 52, Assessment (%)","80 mg, body weight >100 kg",56.7%
same,"≥120% Increase in SHBG at Week 52, Assessment (%)","80 mg, body weight >100 kg",29.6%
same,"≥30% Reduction in MRI-PDFF at Week 52, Assessment (%)","80 mg, body weight ≤100 kg",66.9%
same,"≥120% Increase in SHBG at Week 52, Assessment (%)","80 mg, body weight ≤100 kg",60.9%
same,Discontinued Study Prior to Week 52: number,"80 mg, ≥110 kg",19
same,Discontinued Study Prior to Week 52: percentage (in parentheses),"80 mg, ≥110 kg",(19.2)
same,Week 52 MITT Consensus Fibrosis Improvement Responder: number,"80 mg, ≥110 kg",17
same,Week 52 MITT Consensus Fibrosis Improvement Responder: percentage (in parentheses),"80 mg, ≥110 kg",(17.2)
same,Week 52 MITT Consensus NASH Resolution Responder: number,"80 mg, ≥110 kg",17
same,Week 52 MITT Consensus NASH Resolution Responder: percentage (in parentheses),"80 mg, ≥110 kg",(17.2)
same,Week 52 Paired Biopsies Consensus Fibrosis Improvement Responder: number,"80 mg, ≥110 kg",17
same,Week 52 Paired Biopsies Consensus Fibrosis Improvement Responder: percentage (in parentheses),"80 mg, ≥110 kg",(22.7)
same,Week 52 Paired Biopsies Consensus NASH Resolution Responder: number,"80 mg, ≥110 kg",17
same,Week 52 Paired Biopsies Consensus NASH Resolution Responder: percentage (in parentheses),"80 mg, ≥110 kg",(22.7)
same,≥30% reduction in MRI-PDFF at Week 52: number of patients,"80 mg, ≥110 kg",33
same,≥30% reduction in MRI-PDFF at Week 52: percentage of patients (in parentheses),"80 mg, ≥110 kg",(51.6)
same,≥120% increase in SHBG at Week 52: number of patients,"80 mg, ≥110 kg",21
same,≥120% increase in SHBG at Week 52: percentage of patients (in parentheses),"80 mg, ≥110 kg",(28.0)
same,Discontinued Study Prior to Week 52: number,"100 mg, 80-<90 kg",4
same,Discontinued Study Prior to Week 52: percentage (in parentheses),"100 mg, 80-<90 kg",(8.2)
same,Week 52 MITT Consensus Fibrosis Improvement Responder: number,"100 mg, 80-<90 kg",13
same,Week 52 MITT Consensus Fibrosis Improvement Responder: percentage (in parentheses),"100 mg, 80-<90 kg",(26.5)
same,Week 52 MITT Consensus NASH Resolution Responder: number,"100 mg, 80-<90 kg",16
same,Week 52 MITT Consensus NASH Resolution Responder: percentage (in parentheses),"100 mg, 80-<90 kg",(32.7)
same,Week 52 Paired Biopsies Consensus Fibrosis Improvement Responder: number,"100 mg, 80-<90 kg",13
same,Week 52 Paired Biopsies Consensus Fibrosis Improvement Responder: percentage (in parentheses),"100 mg, 80-<90 kg",(31.7)
